Laboratory results published in patent US8357659B2, “Method of treating pain or itching with APETx2 peptide toxin” (priority 2008, dated 2013).

Legend:
heteromer ASIC2b+3 = target: T1, heteromer ASIC2b+3 (Rattus norvegicus, UniProt O35240+Q62962); conditions: cited from earlier work
T1 sequence (Q62962 1-563 isoform Q62962-2): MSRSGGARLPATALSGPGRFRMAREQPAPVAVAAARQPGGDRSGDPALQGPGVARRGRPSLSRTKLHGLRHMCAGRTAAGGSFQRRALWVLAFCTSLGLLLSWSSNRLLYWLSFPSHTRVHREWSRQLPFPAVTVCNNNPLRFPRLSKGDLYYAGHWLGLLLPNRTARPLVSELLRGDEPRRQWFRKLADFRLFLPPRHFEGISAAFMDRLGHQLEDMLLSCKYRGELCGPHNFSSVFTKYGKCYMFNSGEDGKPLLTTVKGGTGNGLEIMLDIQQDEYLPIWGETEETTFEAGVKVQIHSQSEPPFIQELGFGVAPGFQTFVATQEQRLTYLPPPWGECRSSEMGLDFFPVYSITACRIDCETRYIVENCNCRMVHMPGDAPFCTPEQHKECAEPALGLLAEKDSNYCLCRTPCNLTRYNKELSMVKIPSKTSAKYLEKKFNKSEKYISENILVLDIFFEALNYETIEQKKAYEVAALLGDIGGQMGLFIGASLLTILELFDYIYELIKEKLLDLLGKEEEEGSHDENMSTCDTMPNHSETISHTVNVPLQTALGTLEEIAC
T1 sequence (O35240 1-533): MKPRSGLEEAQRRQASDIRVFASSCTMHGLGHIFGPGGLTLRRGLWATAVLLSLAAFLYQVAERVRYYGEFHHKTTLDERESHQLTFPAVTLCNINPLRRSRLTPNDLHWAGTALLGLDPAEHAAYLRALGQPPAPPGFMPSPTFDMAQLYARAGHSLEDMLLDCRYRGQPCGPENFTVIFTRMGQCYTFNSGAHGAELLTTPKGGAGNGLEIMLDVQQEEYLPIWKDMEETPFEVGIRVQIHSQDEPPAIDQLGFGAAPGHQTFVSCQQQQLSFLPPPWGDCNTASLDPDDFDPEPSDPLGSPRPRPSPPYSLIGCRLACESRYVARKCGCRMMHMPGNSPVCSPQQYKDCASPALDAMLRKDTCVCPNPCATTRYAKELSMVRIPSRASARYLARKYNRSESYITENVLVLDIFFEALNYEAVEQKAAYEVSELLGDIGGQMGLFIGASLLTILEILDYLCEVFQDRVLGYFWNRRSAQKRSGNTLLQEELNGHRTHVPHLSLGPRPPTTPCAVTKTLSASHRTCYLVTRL

[1] = test system: ASIC type current of cutaneous neurons of the spinal ganglia; experiment: Whole cell patch clamp of native ASIC currents in cutaneous neurons of the spinal ganglia; format: cell-based, rat; conditions: pH 6.6; FIG. 1C
Procedure: The neurons of the dorsal root ganglion (spinal ganglia or DRG) innervating the skin were labelled by subcutaneous injections of 5×1 μl of Dil fluorescent dye (5% DMSO, Molecular Probes) in the dorsal side of the rats' hind paws. The dye was injected two weeks before the rats were sacrificed in order to prepare a primary culture of dorsal root ganglion.
The lumbar dorsal root ganglia L3-L6 of Wistar rats (8-11 weeks) were dissected bilaterally and separated enzymatically with 0.1% collagenase. The cells were subsequently plated on 35 mm Petri dishes covered with collagen and cultured at 37° C. (95% air/5% CO2) in DMEM medium containing 5% of foetal calf serum. The electrophysiological experiments were performed 1 to 8 days after seeding.
The whole cell configuration of the patch clamp method was used ([ref. 48]) in order to measure the membrane currents (imposed voltage) or the membrane potentials (imposed current). The recordings were performed at ambient temperature using an RK-400 amplifier (Bio-Logic Science Instruments) with a 3 kHz low-pass filter (Krohn-Hite). The data were sampled at 10 kHz, digitised using a Digidata 1322A A-D/D-A converter (Axon Instruments) and recorded on a hard disk using pClamp software (version 9.2.0.11, Axon Instruments). The recording probes (1-4 MOhms) contained (in mM): 135 KCl, 2.5 Na2-ATP, 2 MgCl2, 2.1 CaCl2, 5 EGTA, 10 HEPES (pH 7.25 with KOH). Various different buffers and drugs of interest were added to the transfected cells considered individually using an internally developed microinfusion system controlled by microelectrovalves (Sirai, Italy) allowing rapid changes of solution. The control bath solution contained (in mM): 145 NaCl, 5 KCl, 2 MgCl2, 2 CaCl2, 10 HEPES (pH 7.4 with NaOH). The MES medium was used instead of the HEPES medium in order to buffer the solution at a pH ranging from 6 to 5, and the ASIC currents were induced by rapid changes of a control solution at pH 7.4 to an acid test solution using the microinfusion system. For the experiments conducted on the DRG neurons, glucose (10 mM) was added to the control bath solution. Hypertonic conditions were obtained by adding mannitol or sucrose to the external bath solutions, as indicated in the text.

heteromer ASIC1b+3 = target: T2, heteromer ASIC1b+3 (Rattus norvegicus, UniProt O35240+P55926); conditions: relative to ASIC3 / ASIC2b+3; cited from earlier work
T2 sequence (P55926 1-559 isoform P55926-3): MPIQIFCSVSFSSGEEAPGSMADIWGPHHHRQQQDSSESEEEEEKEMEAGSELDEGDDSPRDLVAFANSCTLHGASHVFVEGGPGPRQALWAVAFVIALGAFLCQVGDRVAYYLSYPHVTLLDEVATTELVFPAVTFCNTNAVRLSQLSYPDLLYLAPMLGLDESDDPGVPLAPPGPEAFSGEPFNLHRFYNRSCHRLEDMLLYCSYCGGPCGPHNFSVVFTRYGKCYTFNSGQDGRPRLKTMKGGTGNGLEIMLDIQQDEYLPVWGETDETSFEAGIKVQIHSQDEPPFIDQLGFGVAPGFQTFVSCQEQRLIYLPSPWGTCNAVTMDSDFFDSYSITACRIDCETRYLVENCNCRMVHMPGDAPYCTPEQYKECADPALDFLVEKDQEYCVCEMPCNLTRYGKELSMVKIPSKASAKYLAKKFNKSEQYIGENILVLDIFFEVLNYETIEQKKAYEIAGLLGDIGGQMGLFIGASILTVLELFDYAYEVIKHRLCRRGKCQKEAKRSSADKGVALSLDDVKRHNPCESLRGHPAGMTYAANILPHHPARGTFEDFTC
T2 sequence (O35240 1-533): T1 sequence (O35240 1-533)

## peptide of 42 amino acids (SEQ ID NO: 3), three disulphide bonds, from sea anemone Anthopleura elegantissima; blocks ASIC3 [APETx2]
Heteromer ASIC2b+3
  effect on the current of the heteromer ASIC2b+3: inhibits
[1]
  sensitivity of the native ASIC currents to the toxin: partial sensitivity
Heteromer ASIC1b+3
  affinity for the heteromer ASIC1b+3: less affinity
